Test [1] deals with human colorectal carcinoma HCT116 cells. Kind of test: Anti-proliferation assay (Alamar Blue metabolism), HCT116 cells.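 Further: cells in 384-well plates exposed to compound combination matrices for 72 h, Alamar Blue fluorescence read (excitation 530 nm), inhibition calculated against mean of vehicle-only wells.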
Procedure: Stock solutions (1000×) of each compound were prepared in DMSO and stored at −20° C. Master stock plates of 2-fold or 4-fold serial dilutions of individual compounds were prepared in 384-well plates. Combination matrices of test compounds were generated from these master stock plates by dilution into growth media described above. […] The combination matrices were used immediately and discarded.
The anti-proliferation assays were performed in 384-well plates. […] Cells were diluted in culture media such that 3,000 SKMEL-28 cells, or 1,500 cells for all the other cell lines, were delivered in 35 μl of media into each assay well. Assay plates were incubated for 16-24 hours 37° C.±0.5° C. with 5% CO2. After incubation, 4.5 μl of 10× stock solutions from the combination matrices were added to 40 μl of culture media. Assay plates were further incubated for 72 hours at 37° C.±0.5° C. with 5% CO2. […] Alamar Blue metabolism was quantified by the amount of fluorescence intensity 3.5-5.0 hours after addition. Quantification, using an LJL Analyst AD reader (LJL Biosystems), was taken in the middle of the well with high attenuation, a 100 msec read time, an excitation filter at 530 nm, and an emission filter at 575 nm. For some experiments, quantification was performed using a Wallac Victor^2 reader. Measurements were taken at the top of the well with stabilized energy lamp control; a 100 msec read time, an excitation filter at 530 nm, and an emission filter at 590 nm.
The subject of test [2] is human prostate cancer DU145 cells. Kind of test: Anti-proliferation assay (Alamar Blue metabolism), DU145 cells. The conditions noted are these: Homo sapiens, DU-145, DU145 cells. In kind it is cell-based. From the text: (§1) The combination matrices were used immediately and discarded.
Test [3] relates to human melanoma SKMEL-28 cells. Put plainly: Anti-proliferation assay (Alamar Blue metabolism), SKMEL-28 cells. It counts as cell-based.
Text: as §1
Background: Resazurin is reduced to fluorescent resorufin, in cell work by metabolically active cells.

Test [4] deals with human pancreatic cancer PANC1 cells. Put plainly: Anti-proliferation assay (Alamar Blue metabolism), PANC1 cells. In kind it is cell-based. The conditions noted are these: PANC1 cells.
Text: as §1

In test [5] the test system is non-small cell lung carcinoma A549 cells. Kind of test: Anti-proliferation assay (Alamar Blue metabolism), A549 cells. In kind it is cell-based. The settings on record: A549 cells. As for the experimental part:
Inhibition of proliferation was measured by anti-proliferation assay as described below after incubation with the test compound(s) for 72 hours.
as §1
Cells were diluted in culture media such that 3,000 SKMEL-28 cells, or 1,500 cells for all the other cell lines, were delivered in 35 μl of media into each assay well. Assay plates were incubated for 16-24 hours 37° C.±0.5° C. with 5% CO2. […] Assay plates were further incubated for 72 hours at 37° C.±0.5° C. with 5% CO2. […] Alamar Blue metabolism was quantified by the amount of fluorescence intensity 3.5-5.0 hours after addition.
The percent inhibition (% I) for each well was calculated using the following formula: % I=[(avg. untreated wells−treated well)/(avg. untreated wells)]×100 The average untreated well value (avg. untreated wells) is the arithmetic mean of 40 wells from the same assay plate treated with vehicle alone.

The mark [6] stands for this setting: Homo sapiens, HCT-116, read-out: Percent inhibition of Alamar Blue Metabolism, lovastatin […], econazole 0.0 μM.
[7] abbreviates: Homo sapiens, HCT-116, read-out: Percent inhibition of Alamar Blue Metabolism, tioconazole 0.0 μM, lovastatin […].
Setting [8] is: with addition of 7 μM itraconazole.
Setting [9] is: Homo sapiens, HCT-116, read-out: Percent inhibition of Alamar Blue Metabolism, lovastatin 0.0 μM, econazole […].
[10] abbreviates: Homo sapiens, HCT-116, read-out: Percent inhibition of Alamar Blue Metabolism, tioconazole […], lovastatin 0.0 μM.

Where two headings read alike, the source gives them in different places.

This note sets out measurements from patent publication US20060241122A1, “Combination therapy for the treatment of neoplasms” (priority 2003, published 2006).

One may read the inhibition as the relative decrease from the control value, in per cent.

`CC(C)n1c(/C=C/C(O)CC(O)CC(=O)O)c(-c2ccc(F)cc2)c2ccccc21` (stereo not shown) [Fluvastatin, fluvastatin]: the “reduction in the concentration of fluvastatin” value in test [1] (HCT116 cells, […] with 7 μM itraconazole vs 49 μM alone) was found to be 8 fold; in test [3] (SKMEL-28 cells, 3 μM with 7 μM itraconazole vs 49 μM alone), 16 fold. Further, the inhibition at […] in test [1] (Homo sapiens, HCT-116, HCT116 cells, […] fluvastatin + 7 μM itraconazole) was found to be 91.9%. Also, the inhibition at 49 µM was 93.1% in test [1] (Homo sapiens, HCT-116, read-out: maximal inhibition, HCT116 cells, fluvastatin 49 μM alone); 58.3% in test [2] (fluvastatin 49 μM alone, read-out: maximal inhibition); 27.8% in test [3] (Homo sapiens, SK-MEL-28, SKMEL-28 cells, fluvastatin 49 μM alone, read-out: maximal inhibition); 59.9% in test [4] (Homo sapiens, PANC-1, fluvastatin 49 μM alone, read-out: maximal inhibition). For the same molecule, the inhibition at 12 µM came out at 40.3% in test [2] (12 μM fluvastatin + 14 μM itraconazole); 15.5% in test [2] (12 μM fluvastatin, absence of itraconazole); 56.8% in test [4] (Homo sapiens, PANC-1, 12 μM fluvastatin + 7 μM itraconazole). Besides, the inhibition at 3 µM in test [3] (Homo sapiens, SK-MEL-28, SKMEL-28 cells, 3 μM fluvastatin + 7 μM itraconazole) was 59.5%. In test [3] (Table 13: itraconazole 0.87 μM + fluvastatin at row conc. c1 (0-49 μM), 72 h), the “Percent inhibition of Alamar Blue Metabolism in SKMEL-28 cells” value is reported as 35.4%.
With `CC[C@H](C)C(=O)O[C@H]1C[C@@H](C)C=C2C=C[C@H](C)[C@H](CC[C@@H]3C[C@@H](O)CC(=O)O3)[C@H]21` [Lovastatin, lovastatin], in test [1] (HCT116 cells, 6 μM with […] itraconazole vs 48 μM alone), the “reduction in the concentration of lovastatin” value came to 8 fold. Besides, the inhibition at 6 µM is 70.1% in test [1] (Homo sapiens, HCT-116, HCT116 cells, 6.0 μM lovastatin + 9.0 μM tioconazole); 83.4% in test [1] (Homo sapiens, HCT-116, HCT116 cells, 6 μM lovastatin + […] itraconazole); 46.1% in test [1] (Homo sapiens, HCT-116, read-out: Percent inhibition of Alamar Blue Metabolism, tioconazole 0.0 μM, lovastatin 6.0 μM). The inhibition at 18 µM worked out at 84.5% in test [1] (Homo sapiens, HCT-116, HCT116 cells, 18 μM lovastatin + […] econazole) and 41.3% in test [1] (setting [6]). The inhibition at 0.3 µM in test [1] (Homo sapiens, HCT-116, read-out: Percent inhibition of Alamar Blue Metabolism, lovastatin 0.3 μM, econazole 0.0 μM) is 10.5%. Also, the inhibition at 0.6 µM in test [1] (Homo sapiens, HCT-116, read-out: Percent inhibition of Alamar Blue Metabolism, lovastatin 0.6 μM, econazole 0.0 μM) was 5.4%. Besides, the inhibition at 9 µM in test [1] (Homo sapiens, HCT-116, read-out: Percent inhibition of Alamar Blue Metabolism, lovastatin 9.0 μM, econazole 0.0 μM) is 27.3%. Besides, the inhibition at 36 µM in test [1] (setting [6]) amounted to 95.6%; in test [1] (Homo sapiens, HCT-116, read-out: maximal inhibition, HCT116 cells, lovastatin 36 μM alone (Example 20)), 95.6%. The inhibition at 0.2 µM in test [1] (Homo sapiens, HCT-116, read-out: Percent inhibition of Alamar Blue Metabolism, tioconazole 0.0 μM, lovastatin 0.2 μM) was determined as 9.8%. Besides, the inhibition at 0.4 µM in test [1] (Homo sapiens, HCT-116, read-out: Percent inhibition of Alamar Blue Metabolism, tioconazole 0.0 μM, lovastatin 0.4 μM) turned out to be 23.1%. The inhibition at 0.8 µM in test [1] (Homo sapiens, HCT-116, read-out: Percent inhibition of Alamar Blue Metabolism, tioconazole 0.0 μM, lovastatin 0.8 μM) is 12.3%. Moreover, in test [1] (Homo sapiens, HCT-116, read-out: Percent inhibition of Alamar Blue Metabolism, tioconazole 0.0 μM, lovastatin 3.0 μM), the inhibition at 3 µM worked out at 29.9%. The inhibition at 12 µM in test [1] (setting [7]) is 50%. The inhibition at 24 µM worked out at 61.9% in test [1] (setting [7]) and 61.9% in test [1] (Homo sapiens, HCT-116, read-out: maximal inhibition, HCT116 cells, lovastatin 24 μM alone (Example 22)). Moreover, the inhibition at […] in test [1] (setting [7]) came out at 32.2%. For the same molecule, in test [1] (Homo sapiens, HCT-116, read-out: maximal inhibition, HCT116 cells, lovastatin 48 μM alone (Example 14)), the inhibition at 48 µM was 55%. The “Percent inhibition of Alamar Blue Metabolism in HCT116 cells” value in test [1] (Table 14: itraconazole 14 μM + lovastatin at row conc. c1 (0-48 μM), 72 h) is listed as 88.9%.
Take `CCC(C)(C)C(=O)O[C@H]1C[C@@H](C)C=C2C=C[C@H](C)[C@H](CC[C@@H]3C[C@@H](O)CC(=O)O3)[C@H]21` [Simvastatin, simvastatin]: the inhibition at 12 µM in test [1] (Homo sapiens, HCT-116, HCT116 cells, 12 μM simvastatin + 7 μM itraconazole) is 92.7%. For the same molecule, in test [5] (12 μM with 7 μM itraconazole vs 48 μM alone), the “reduction in the concentration of simvastatin” value was determined as 4 fold. Besides, the “simvastatin concentration required for nearly maximal inhibition” value in test [5] (setting [8]) and in test [4] (setting [8]) was 12 µM each time. Further, the reduction in simvastatin in test [3] (SKMEL-28 cells, 6 μM with 7 μM itraconazole vs 48 μM alone) is reported as 8 fold. Moreover, in test [3] (SKMEL-28 cells, 9 μM statin + 7 μM itraconazole), the “inhibition of cell proliferation” value is on record as 61.8%. In addition, in test [3] (SKMEL-28 cells, 9 μM statin, absence of itraconazole), the inhibition was 24.0%.
Consider `COCc1c(C(C)C)nc(C(C)C)c(/C=C/[C@@H](O)C[C@@H](O)CC(=O)O)c1-c1ccc(F)cc1` [cerivastatin], for which the “reduction in the concentration of cerivastatin” value in test [1] (HCT116 cells, […] with […] itraconazole vs 22 μM alone) is given as 8 fold. In addition, the inhibition at 22 µM in test [1] (Homo sapiens, HCT-116, read-out: Percent inhibition of Alamar Blue Metabolism, cerivastatin 22 μM, itraconazole 0 μM) was 85.5%; in test [1] (Homo sapiens, HCT-116, read-out: maximal inhibition, HCT116 cells, cerivastatin 22 μM alone), 85.5%.
As for `Clc1ccccc1C(c1ccccc1)(c1ccccc1)n1ccnc1` [clotrimazole], the inhibition at 0.5 µM in test [1] (Homo sapiens, HCT-116, read-out: Percent inhibition of Alamar Blue Metabolism, atorvastatin 0.0 μM, clotrimazole 0.5 μM) is 25.9%. Further, the inhibition at 0.9 µM in test [1] (Homo sapiens, HCT-116, read-out: Percent inhibition of Alamar Blue Metabolism, atorvastatin 0.0 μM, clotrimazole 0.9 μM) amounted to 35.8%.
On to `Clc1ccc(COC(Cn2ccnc2)c2ccc(Cl)cc2Cl)cc1` (stereo not shown) [econazole], for which the inhibition at 0.4 µM in test [1] (Homo sapiens, HCT-116, read-out: Percent inhibition of Alamar Blue Metabolism, atorvastatin 0.0 μM, econazole 0.4 μM) is 0.7%. Besides, the inhibition at 0.7 µM in test [1] (Homo sapiens, HCT-116, read-out: Percent inhibition of Alamar Blue Metabolism, atorvastatin 0.0 μM, econazole 0.7 μM) was -1.7%. Besides, the inhibition at 2.8 µM in test [1] (Homo sapiens, HCT-116, read-out: Percent inhibition of Alamar Blue Metabolism, atorvastatin 0.0 μM, econazole 2.8 μM) is 1.6%. Moreover, the inhibition at 0.4 µM in test [1] (Homo sapiens, HCT-116, read-out: Percent inhibition of Alamar Blue Metabolism, lovastatin 0.0 μM, econazole 0.4 μM) is 0.6%. For the same molecule, the inhibition at 0.8 µM in test [1] (Homo sapiens, HCT-116, read-out: Percent inhibition of Alamar Blue Metabolism, lovastatin 0.0 μM, econazole 0.8 μM) turned out to be 8.8%. Moreover, the inhibition at 3 µM in test [1] (Homo sapiens, HCT-116, read-out: Percent inhibition of Alamar Blue Metabolism, lovastatin 0.0 μM, econazole 3.0 μM) was determined as 23.9%. Further, the inhibition at 6 µM in test [1] (Homo sapiens, HCT-116, read-out: Percent inhibition of Alamar Blue Metabolism, lovastatin 0.0 μM, econazole 6.0 μM) came out at 36.7%. The inhibition at 48 µM in test [1] (Homo sapiens, HCT-116, read-out: Percent inhibition of Alamar Blue Metabolism, lovastatin 0.0 μM, econazole 48.0 μM) worked out at 96.1%. In test [1] (setting [9]), the inhibition at 12 µM was 57.2%, the inhibition at 24 µM came to 78.6% and the inhibition at […] was found to be 14.9%. Moreover, the inhibition at 36 µM in test [1] (Homo sapiens, HCT-116, read-out: maximal inhibition, HCT116 cells, 36 μM alone (Example 18)) came out at 83.1%.
In the case of `CC[C@H](C)C(=O)O[C@H]1C[C@@H](C)C=C2C=C[C@H](C)[C@H](CCC(O)C[C@@H](O)CC(=O)O)[C@H]21` (stereo partly shown) [lovastatin sodium], the “reduction in the concentration of lovastatin” value in test [1] (HCT116 cells, 2.8 μM with 7 μM itraconazole vs 22 μM alone) stood at 8 fold. In addition, the inhibition at 2.8 µM in test [1] (Homo sapiens, HCT-116, HCT116 cells, 2.8 μM lovastatin sodium + 7 μM itraconazole) amounted to 82%. Also, the inhibition at 22 µM in test [1] (Homo sapiens, HCT-116, read-out: maximal inhibition, HCT116 cells, lovastatin sodium 22 μM alone) was found to be 58.9%.
Turning to `CC(C)N1CCN(c2ccc(OCC3COC(Cn4cncn4)(c4ccc(Cl)cc4Cl)O3)cc2)CC1` (stereo not shown) [terconazole], the inhibition at 19 µM in test [1] (Homo sapiens, HCT-116, read-out: Percent inhibition of Alamar Blue Metabolism, atorvastatin 0 μM, terconazole 19 μM) was 38.4%. The inhibition at 38 µM in test [1] (Homo sapiens, HCT-116, read-out: Percent inhibition of Alamar Blue Metabolism, atorvastatin 0 μM, terconazole 38 μM) was determined as 94.8%.
On to `Clc1ccc(C(Cn2ccnc2)OCc2ccsc2Cl)c(Cl)c1` (stereo not shown) [tioconazole], for which the inhibition at 0.3 µM in test [1] (Homo sapiens, HCT-116, read-out: Percent inhibition of Alamar Blue Metabolism, tioconazole 0.3 μM, lovastatin 0.0 μM) was found to be 8.6%. Besides, in test [1] (Homo sapiens, HCT-116, read-out: Percent inhibition of Alamar Blue Metabolism, tioconazole 0.6 μM, lovastatin 0.0 μM), the inhibition at 0.6 µM turned out to be 3.7%. Further, the inhibition at 9 µM in test [1] (Homo sapiens, HCT-116, read-out: Percent inhibition of Alamar Blue Metabolism, tioconazole 9.0 μM, lovastatin 0.0 μM) is 19.8%. In addition, in test [1] (setting [10]), the inhibition at 18 µM stood at 26.8% and the inhibition at 36 µM stood at 41.3%.
